# Results taken from the supplement of paper PMC9663587.
# Legend:
# YKL-5-124 = compound: C=CC(=O)Nc1ccc(C(=O)Nc2[nH]nc3c2CN(C(=O)N[C@H](CN(C)C)c2ccccc2)C3(C)C)cc1 [YKL-5-124]; experiment: increase in dead-cell fraction, 72 h; higher = more death;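 also: breast cancer cell lines in 384-well plates, stained with Hoechst plus LIVE/DEAD far red dye and imaged, cells above an LDR intensity threshold counted dead, Hoechst-negative corpses included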
# BSJ-03-123 = compound: CC(=O)c1c(C)c2cnc(Nc3ccc(N4CCN(CCOCCOCCOCCNC(=O)COc5cccc6c5C(=O)N(C5CCC(=O)NC5=O)C6=O)CC4)cn3)nc2n(C2CCCC2)c1=O [BSJ-03-123]; experiment: as above
# [1] = compound: CC(=O)c1c(C)c2cnc(Nc3ccc(N4CCNCC4)cn3)nc2n(C2CCCC2)c1=O; experiment: as above
# [2] = compound: CCN1CCN(Cc2ccc(Nc3ncc(F)c(-c4cc(F)c5nc(C)n(C(C)C)c5c4)n3)nc2)CC1; experiment: as above
# Neratinib/HKI272 [3] = compound: T1, CCOc1cc2ncc(C#N)c(Nc3ccc(OCc4ccccn4)c(Cl)c3)c2cc1NC(=O)/C=C/CN(C)C [Neratinib/HKI272]; experiment: as above
# [4] = compound: CCc1cnn2c(NCc3ccc[n+]([O-])c3)cc(N3CCCC[C@H]3CCO)nc12; experiment: as above
# LEE011/Ribociclib = compound: CN(C)C(=O)c1cc2cnc(Nc3ccc(N4CCNCC4)cn3)nc2n1C1CCCC1 [LEE011/Ribociclib]; experiment: as above
# THZ531 = compound: CN(C)C/C=C/C(=O)Nc1ccc(C(=O)N2CCC[C@@H](Nc3ncc(Cl)c(-c4c[nH]c5ccccc45)n3)C2)cc1 [THZ531]; experiment: as above
# THZ1 = compound: CN(C)C/C=C/C(=O)Nc1ccc(C(=O)Nc2cccc(Nc3ncc(Cl)c(-c4c[nH]c5ccccc45)n3)c2)cc1 [THZ1]; experiment: as above
# Flavopiridol [5] = compound: T2, CN1CC[C@H](c2c(O)cc(O)c3c(=O)cc(-c4ccccc4Cl)oc23)[C@H](O)C1 [Flavopiridol]; experiment: as above
# Neratinib/HKI272 [6] = compound: T1, Neratinib/HKI272; experiment: GR value, 72 h; higher = faster growth (1 = untreated, <0 = killing);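 also: breast cancer and non-malignant breast epithelial lines, nine half-log doses, viable cells counted by Hoechst and LIVE/DEAD dye imaging versus time-zero plates and DMSO controls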
# Flavopiridol [7] = compound: T2, Flavopiridol; experiment: as above
cell line,measurement,setting,value
HCC1419,increase in dead-cell fraction,YKL-5-124; 0.001 µM,0.0323
same,increase in dead-cell fraction,YKL-5-124; 0.003162 µM,0.0181
same,increase in dead-cell fraction,YKL-5-124; 0.01 µM,0.0297
same,increase in dead-cell fraction,YKL-5-124; 0.03162 µM,0.0399
same,increase in dead-cell fraction,YKL-5-124; 0.1 µM,0.0564
same,increase in dead-cell fraction,YKL-5-124; 0.3162 µM,0.0505
same,increase in dead-cell fraction,YKL-5-124; 1 µM,0.0568
same,increase in dead-cell fraction,YKL-5-124; 3.162 µM,0.0662
same,increase in dead-cell fraction,YKL-5-124; 10 µM,0.187
same,increase in dead-cell fraction,BSJ-03-123; 0.001 µM,0.0036
same,increase in dead-cell fraction,BSJ-03-123; 0.003162 µM,0.0018
same,increase in dead-cell fraction,BSJ-03-123; 0.01 µM,0.0094
same,increase in dead-cell fraction,BSJ-03-123; 0.03162 µM,0.0064
same,increase in dead-cell fraction,BSJ-03-123; 0.1 µM,0.0141
same,increase in dead-cell fraction,BSJ-03-123; 0.3162 µM,0.0138
same,increase in dead-cell fraction,BSJ-03-123; 1 µM,0.0115
same,increase in dead-cell fraction,BSJ-03-123; 3.162 µM,0.0247
same,increase in dead-cell fraction,BSJ-03-123; 10 µM,0.031
same,increase in dead-cell fraction,[1]; 0.0003162 µM,0.0008
same,increase in dead-cell fraction,[1]; 0.001 µM,-0.0028
same,increase in dead-cell fraction,[1]; 0.003162 µM,-0.0032
same,increase in dead-cell fraction,[1]; 0.01 µM,-0.0075
same,increase in dead-cell fraction,[1]; 0.03162 µM,-0.0019
same,increase in dead-cell fraction,[1]; 0.1 µM,-0.0096
same,increase in dead-cell fraction,[1]; 0.3162 µM,-0.0094
same,increase in dead-cell fraction,[1]; 1 µM,-0.0106
same,increase in dead-cell fraction,[1]; 3.162 µM,-0.0074
same,increase in dead-cell fraction,[2]; 0.001 µM,-0.0053
same,increase in dead-cell fraction,[2]; 0.003162 µM,-0.0087
same,increase in dead-cell fraction,[2]; 0.01 µM,-0.0058
same,increase in dead-cell fraction,[2]; 0.03162 µM,-0.0119
same,increase in dead-cell fraction,[2]; 0.1 µM,-0.0149
same,increase in dead-cell fraction,[2]; 0.3162 µM,-0.0181
same,increase in dead-cell fraction,[2]; 1 µM,-0.006
same,increase in dead-cell fraction,[2]; 3.162 µM,-0.0031
same,increase in dead-cell fraction,[2]; 10 µM,0.0471
same,increase in dead-cell fraction,Neratinib/HKI272 [3]; 0.0003162 µM,-0.0014
same,increase in dead-cell fraction,Neratinib/HKI272 [3]; 0.001 µM,0.0002
same,increase in dead-cell fraction,Neratinib/HKI272 [3]; 0.003162 µM,0.0137
same,increase in dead-cell fraction,Neratinib/HKI272 [3]; 0.01 µM,0.0803
same,increase in dead-cell fraction,Neratinib/HKI272 [3]; 0.03162 µM,0.168
same,increase in dead-cell fraction,Neratinib/HKI272 [3]; 0.1 µM,0.238
same,increase in dead-cell fraction,Neratinib/HKI272 [3]; 0.3162 µM,0.274
same,increase in dead-cell fraction,Neratinib/HKI272 [3]; 1 µM,0.366
same,increase in dead-cell fraction,Neratinib/HKI272 [3]; 3.162 µM,0.493
same,increase in dead-cell fraction,[4]; 0.0001 µM,-0.001
same,increase in dead-cell fraction,[4]; 0.0003162 µM,-0.0047
same,increase in dead-cell fraction,[4]; 0.001 µM,-0.0035
same,increase in dead-cell fraction,[4]; 0.003162 µM,-0.0074
same,increase in dead-cell fraction,[4]; 0.01 µM,-0.001
same,increase in dead-cell fraction,[4]; 0.03162 µM,0.0673
same,increase in dead-cell fraction,[4]; 0.1 µM,0.324
same,increase in dead-cell fraction,[4]; 0.3162 µM,0.371
same,increase in dead-cell fraction,[4]; 1 µM,0.369
same,increase in dead-cell fraction,LEE011/Ribociclib; 0.001 µM,-0.0016
same,increase in dead-cell fraction,LEE011/Ribociclib; 0.003162 µM,0.0044
same,increase in dead-cell fraction,LEE011/Ribociclib; 0.01 µM,0.0015
same,increase in dead-cell fraction,LEE011/Ribociclib; 0.03162 µM,-0.0001
same,increase in dead-cell fraction,LEE011/Ribociclib; 0.1 µM,0.0168
same,increase in dead-cell fraction,LEE011/Ribociclib; 0.3162 µM,0.0148
same,increase in dead-cell fraction,LEE011/Ribociclib; 1 µM,0.0084
same,increase in dead-cell fraction,LEE011/Ribociclib; 3.162 µM,0.0128
same,increase in dead-cell fraction,LEE011/Ribociclib; 10 µM,0.0195
same,increase in dead-cell fraction,THZ531; 0.0001 µM,-0.0026
same,increase in dead-cell fraction,THZ531; 0.0003162 µM,-0.0053
same,increase in dead-cell fraction,THZ531; 0.001 µM,0.0001
same,increase in dead-cell fraction,THZ531; 0.003162 µM,-0.0057
same,increase in dead-cell fraction,THZ531; 0.01 µM,-0.0018
same,increase in dead-cell fraction,THZ531; 0.03162 µM,-0.001
same,increase in dead-cell fraction,THZ531; 0.1 µM,0.0145
same,increase in dead-cell fraction,THZ531; 0.3162 µM,0.0751
same,increase in dead-cell fraction,THZ531; 1 µM,0.14
same,increase in dead-cell fraction,THZ1; 0.0001 µM,-0.0023
same,increase in dead-cell fraction,THZ1; 0.0003162 µM,0.0069
same,increase in dead-cell fraction,THZ1; 0.001 µM,0.0008
same,increase in dead-cell fraction,THZ1; 0.003162 µM,0.001
same,increase in dead-cell fraction,THZ1; 0.01 µM,-0.0006
same,increase in dead-cell fraction,THZ1; 0.03162 µM,-0.0062
same,increase in dead-cell fraction,THZ1; 0.1 µM,0.0395
same,increase in dead-cell fraction,THZ1; 0.3162 µM,0.147
same,increase in dead-cell fraction,THZ1; 1 µM,0.138
same,increase in dead-cell fraction,Flavopiridol [5]; 0.0001 µM,-0.0053
same,increase in dead-cell fraction,Flavopiridol [5]; 0.0003162 µM,-0.0069
same,increase in dead-cell fraction,Flavopiridol [5]; 0.001 µM,-0.006
same,increase in dead-cell fraction,Flavopiridol [5]; 0.003162 µM,-0.0084
same,increase in dead-cell fraction,Flavopiridol [5]; 0.01 µM,-0.0002
same,increase in dead-cell fraction,Flavopiridol [5]; 0.03162 µM,0.0077
same,increase in dead-cell fraction,Flavopiridol [5]; 0.1 µM,0.0061
same,increase in dead-cell fraction,Flavopiridol [5]; 0.3162 µM,0.0159
same,increase in dead-cell fraction,Flavopiridol [5]; 1 µM,0.162
same,GR value,Neratinib/HKI272 [6]; 0.0003162 µM,0.769 GR
same,GR value,Neratinib/HKI272 [6]; 0.001 µM,0.611 GR
same,GR value,Neratinib/HKI272 [6]; 0.003162 µM,0.148 GR
same,GR value,Neratinib/HKI272 [6]; 0.01 µM,0.0675 GR
same,GR value,Neratinib/HKI272 [6]; 0.03162 µM,-0.097 GR
same,GR value,Neratinib/HKI272 [6]; 0.1 µM,-0.159 GR
same,GR value,Neratinib/HKI272 [6]; 0.3162 µM,-0.26 GR
same,GR value,Neratinib/HKI272 [6]; 1 µM,-0.404 GR
same,GR value,Neratinib/HKI272 [6]; 3.162 µM,-0.494 GR
same,GR value,Flavopiridol [7]; 0.0001 µM,1.06 GR
same,GR value,Flavopiridol [7]; 0.0003162 µM,0.994 GR
same,GR value,Flavopiridol [7]; 0.001 µM,0.974 GR
same,GR value,Flavopiridol [7]; 0.003162 µM,0.95 GR
same,GR value,Flavopiridol [7]; 0.01 µM,0.932 GR
same,GR value,Flavopiridol [7]; 0.03162 µM,0.894 GR
same,GR value,Flavopiridol [7]; 0.1 µM,0.658 GR
same,GR value,Flavopiridol [7]; 0.3162 µM,0.396 GR
same,GR value,Flavopiridol [7]; 1 µM,-0.261 GR
